Data: patent US20240307334A1 (Lieber Institute, Inc., priority 2023, published 2024)
Counter-ions that a name gives are not always drawn.

How the values were obtained:
[1] = system: primary OPC/OL cultures from Tcf4+/tr and Tcf4+/+ mice; experiment: Primary OPC and OL cultures: immunocytochemistry quantification of OPCs and OLs normalized to Olig2; format: cell-based, mouse; conditions: for OPCs (PDGFRα+/Olig2+) / mature OLs (MBP+/Olig2+): Tcf4+/tr cells
Experimental: Mice were dosed at 1.0 mg/kg/day for 14 days with either Sob-AM2 or NMP/Kolliphor solution (vehicle). Initial dosing was performed at P28 up until P42 when animals were then used for subsequent experiments.
Primary OPC and OLs were obtained following a previous protocol^19. In brief, P2-P3 pups were dissociated and plated at a density of 10.0×10^3 cells/cm^2 in a 96 well ibidi plate coated in 0.1% polyethyleneimine (PEI) and 0.5-μg/mL laminin. Cells were plated and maintained in OPC proliferation media consisting of 1× StemPro Neural supplement (Thermo Fisher Scientific, A1050801), 1× Anti-Anti (Thermo Fisher Scientific, 15240-096), 10 ng/mL of Human FGF-basic (Peprotech, 100-18B) and 30 ng/mL rhPDGF-AA (R&D systems, 221-AA), with a half media exchange on DIV4.
(§1) Cells were rinsed 1× with PBS and then fixed with 4% paraformaldehyde (PFA) for 5 minutes, following fixation cells were rinsed 3× with PBS. Similarly, mice were perfused with 20-30 mLs of 1× PBS, followed by 20-30 mLs of 4% PFA. Tissue was extracted and post fixed in 4% PFA on a rocker at 4° C. overnight. For immunostaining cells were rinsed 3× with 0.04% Tween 20 (Sigma 655204) while tissue (P42 mouse) was rinsed 3× with 0.4% Triton (Sigma X100). Cells were blocked in respective serum (10%) for 2 hours at room temperature on an orbital shaker. Following block, primary antibody was added in 2% serum in 0.04% Tween 20 for cells and 0.4% Triton-X 100 for tissue, and incubated overnight at 4° C. Following overnight incubation cells were rinsed 3× with 0.04% Tween 20 or 0.4% Triton respectively before adding the secondary antibody to incubate at room temperature for 2 hours. After incubation, cells were rinsed 3× in respective buffers and counterstained with DAPI (Invitrogen™, D1306). Visualization was carried out on a ZEISS LSM 700 Confocal. Imaging and quantification were performed blind to genotypes and conditions/treatments.
Mei et al., 2014; Yoshida et al., 2020. Following a previously established protocol, Yoshida et al., 2020, we dissociated and plated OPCs from both Tcf4^+/+ and Tcf4^+/tr mice onto 96-well plates in OPC proliferation media. […] We performed blinded quantification of OPCs and OLs using antibodies against PDGFRα and MBP, respectively, and normalized our counts with the pan-OL marker OLIG2 (FIG. 1B).
Hartley et al., 2019. We performed blinded quantification of OPCs and OLs using antibodies against PDGFRα and MBP, respectively, and normalized our counts with the pan-OL marker OLIG2 (FIG. 7A).

[2] = system: Tcf4+/tr mouse model of PTHS; experiment: Transmission electron microscopy (TEM) of myelination in the corpus callosum; format: in vivo
Experimental: 5% DMA (dimethylacetamide, Sigma 271012) was added up to the total volume needed. […] The mixture was shaken vigorously (vortex) and was ready for administration for intraperitoneal (1P) dosing at 10 mL/kg. The final pH was approximately 5. […] Initial dosing was performed at P28 up until P42 when animals were then used for subsequent experiments.
After perfusion with a 0.1 M sodium cacodylate buffer, pH 7.2, containing 2% paraformaldehyde (freshly prepared from EM grade aqueous solution), 2% glutaraldehyde, and 3 mM MgCl2, p42 mouse brains were kept overnight in fixative. The next day brains were dissected in fixative and rinsed with sodium cacodylate buffer. Samples were then post-fixed in reduced 2% osmium tetroxide, 1.6% potassium ferrocyanide in buffer (2 hr) on ice in the dark. Following a dH2O rinse, samples were stained with 2% aqueous uranyl acetate (0.22 μm filtered, 1 hr, dark), dehydrated in a graded series of ethanol, propylene oxide and embedded in Eponate 12 (Ted Pella) resin. Samples were polymerized at 60° C. overnight. Thin sections, 60 to 90 nm, were cut with a diamond knife on the Reichert-Jung Ultracut E ultramicrotome and picked up with copper slot (1×2 mm) grids. Grids were stained with 2% uranyl acetate and observed with a Phillips CM120 TEM at 80 kV. Images were captured with an AMT XR80 CCD camera. Preparation of samples, TEM imaging, and quantification was performed blind to genotypes.
Blinded to genotype and condition, TEM images were taken on the CC directly above the hippocampus from anatomically equivalent tissue sections in littermates. […] To further validate this, we quantified BCAS1+ cells (pre-myelinating OLs).

[3] = system: Tcf4+/tr mouse model of PTHS; experiment: Novel open field assay (locomotor activity and anxiety); format: in vivo; conditions: Tcf4+/tr mice
Experimental: (§2) The final pH was approximately 5.
(§3) Mice were dosed at 1.0 mg/kg/day for 14 days with either Sob-AM2 or NMP/Kolliphor solution (vehicle).
Locomotor activity and anxiety was assessed using Noldus PhenoTyper cages as previously shown. Mickelsen et al., 2019. Each cage is outfitted with two sets of cameras; one on the ceiling that faces the platform (35 cm×35 cm), and another pointed at the side of the cage. Mice were acclimated to the experimentation room in their home cages for at least 1 h. During acclimation, the Noldus EthoVision software was set-up to track movement for 30 total minutes. After acclimation, mice were placed in the center of the open field, opaque Plexiglas was placed on all four sides of the cage to obscure any visual cues, and the trial was started in the EthoVision software. After 30 min, the trial ended, and mice were placed back into their home cages. Noldus EthoVision software was used to determine distance traveled, time spent in center, and frequency of going to center.
Next we treated Tcf4^+/tr mice and Tcf4^+/+ littermates with Sob-AM2 for 14 days and then assayed their behavior in the open field (FIG. 8A).

[4] = system: multiple sclerosis; conditions: phase 2 clinical trial for multiple sclerosis; cited from earlier work
[5] = system: Tcf4+/tr mouse model of PTHS; experiment: In vivo immunohistochemical (IHC) quantification of OPCs and OLs after two-week intraperitoneal dosing
Source text: The Tcf4^+/tr mouse model of PTHS is heterozygous for an allele encoding deletion of the DNA-binding domain of TCF4 (B6; 129-TCF4tmlZhu/J, stock number 013598, Jackson Laboratory). This mouse colony was backcrossed for at least six generations, maintained by The Lieber Institute for Brain Developments Animal Facility on a 12-h light/dark cycle and fed ad libitum. Tcf4^+/tr mouse samples were matched with samples from Tcf4^+/+ littermates, and sex was randomly selected in each genotype and age group. All procedures were performed in accordance with the National Institutes of Health Guide for the Care and Use of Laboratory Animals and approved by the Johns Hopkins University School of Medicine's Institutional Animal Care and Use Committee.
as §2, §3, §1
Next, we assessed the effectiveness of Sob-AM2 in vivo by dosing Tcf4^+/tr mice and Tcf4^+/+ littermates intraperitoneally with either Sob-AM2 (1 mg/kg) or vehicle for two weeks followed by immunohistochemical (IHC) quantification (FIG. 7D).

[6] = following systemic administration, prodrug compared with sobetirome; cited from earlier work
[7] = clemastine (1 μM) DIV7 to DIV14, compared to vehicle treated Tcf4+/tr cells
[8] = clemastine for 14 days, 30 min open field
[9] = Tcf4+/tr mice, clemastine 10 mg/kg intraperitoneally for two weeks (P28-P42)
[10] = sobetirome (1 μM) 7 days to DIV14, compared to vehicle-treated Tcf4+/tr cells
[11] = Sob-AM2 for 14 days, compared to vehicle-treated Tcf4+/tr littermates
[12] = Tcf4+/tr mice, Sob-AM2 1 mg/kg intraperitoneally for two weeks

CN1CCC[C@@H]1CCO[C@](C)(c1ccccc1)c1ccc(Cl)cc1 [clemastine, clemastine fumarate]
OPCs (PDGFRα+/Olig2+) [1, 7]: significant reduction in OPCs | mature OLs (MBP+/Olig2+) [1, 7]: an increase in OLs | total number of Olig2 positive cells, in vitro ([1]; all conditions, in vitro assay): no effect on the total number of Olig2 positive cells | density of uncompacted myelin ([2]; Tcf4+/tr mice, clemastine vs vehicle-treated Tcf4+/tr mice): significantly increased the density of uncompacted myelin | proportion of uncompacted myelin ([2]; Tcf4+/tr mice, relative to vehicle-treated Tcf4+/+ mice): normalized the proportion of uncompacted myelin | total myelin density ([2]; Tcf4+/tr mice, two week clemastine treatment): unable to restore Tcf4^+/+ levels of total myelin density | proportion of compact myelin per image ([2]; clemastine Tcf4+/+ and clemastine Tcf4+/tr): less compaction overall | frequency of entering the center of the field [3, 8]: reduction in the frequency of entering the center of the field | total distance traveled [3, 8]: significant reduction in total distance traveled | remyelination in patients [4]: showed remyelination capabilities | number of BCAS1+ cells (pre-myelinating OLs) ([5]; Tcf4+/tr mice, 14 days clemastine): significantly increased the number of BCAS1+ cells | OPCs (PDGFRα+/Olig2+) [5, 9]: significant decrease in OPCs | mature OLs (CC1+/Olig2+) [5, 9]: significant increase in mature OLs | total number of Olig2 positive cells, in vivo ([5]; all conditions, in vivo assay): no effect on the total number of Olig2 positive cells

Cc1cc(OCC(=O)O)cc(C)c1Cc1ccc(O)c(C(C)C)c1 [sobetirome]
OPCs (PDGFRα+/Olig2+) [1, 10]: significant reduction in OPCs | mature OLs (MBP+/Olig2+) [1, 10]: an increase in OLs

CNC(=O)COc1cc(C)c(Cc2ccc(O)c(C(C)C)c2)c(C)c1 [Sob-AM2]
crossing of the blood brain barrier and distribution to the central nervous system [6]: better able to cross the blood brain barrier | frequency of entering the center of the open field [3, 11]: reduction in the frequency of entering the center of the open field | total distance traveled [3, 11]: significant reduction in total distance traveled | OPCs (PDGFRα+/Olig2+) [5, 12]: significant decrease in OPCs | mature OLs (CC1+/Olig2+) [5, 12]: significant increase in mature OLs
